These results are taken from patent publication US11091450B2, “Crystal of a caspase inhibitor” (Chia Tai Tianqing Pharmaceutical Group Co., Ltd., priority 2018, dated 2021).

A short description of data set [1]: Solubility test of crystal IV in different pH medium solutions. The class given is physicochemical. The conditions noted are these: thermodynamic from solid, 37° C. The procedure:
2 ml of pH medium solutions were transferred into 4 ml glass bottle respectively, and then 8 mg of crystal IV of the compound of formula I-A was added thereto. It was stirred and heated on a magnetic stirrer, and the temperature was kept at 37° C. After 4 hours and 24 hours, 1 mL of sample was taken and centrifuged rapidly, respectively. The pH value of the supernatant was determined, and the supernatant was diluted with diluent. The concentration was determined by HPLC.

Data set [2] is described as follows: Solid stability test of crystal IV (temperature, humidity, light; HPLC impurities). Type of data set: physicochemical. The procedure: 8 mg of crystal IV of the compound of formula I-A was taken, weighed accurately, placed in the sample vial and spread into a thin layer. The samples at day 0 were sealed with the bottle cap and further sealed with the sealing film, followed by storing in the refrigerator at −20° C. The stability of the samples was tested under 60° C., 92.5% RH, 25° C./60% RH, 40° C./75% RH, 60° C./75% RH and light conditions, respectively.
Analysis method: Agilent 1260 High Performance Liquid Chromatography equipped with DAD detector or Waters 2695 High Performance Liquid Chromatography equipped with PDA detector was used; chromatographic column: Waters Xselect CSH C18 (4.6 mm×150 mm, 3.5 μm), column temperature: 40° C., flow rate: 1.0 ml/min, detection wavelength: 215 nm, injection volume: 10 μL, sample concentration: 0.5 mg/mL, diluent: methanol, and the gradient of mobile phases in Table 9 was used for analysis.

Another data set addresses T1, Caspase-1 (Homo sapiens, UniProt P29466).
T1 construct: purchased BioVision K151-100
T1 sequence (P29466 120-297 limits assumed): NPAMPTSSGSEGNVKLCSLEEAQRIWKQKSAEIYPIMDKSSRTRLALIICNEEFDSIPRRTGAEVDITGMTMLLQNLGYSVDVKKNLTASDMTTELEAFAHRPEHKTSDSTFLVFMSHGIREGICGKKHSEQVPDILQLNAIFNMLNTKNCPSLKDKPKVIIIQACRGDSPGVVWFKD
T1 sequence (P29466 317-404 limits assumed): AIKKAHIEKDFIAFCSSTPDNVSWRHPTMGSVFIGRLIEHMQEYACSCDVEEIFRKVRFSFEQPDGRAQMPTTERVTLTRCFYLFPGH
The experiment in a line: Caspase-1 Inhibitor Screening Kit (BioVision), fluorogenic substrate. The class given is biochemical. The conditions noted are these: 30 min preincubation at 37° C., substrate 50 μM; read-out: Caspase-1 enzymatic activity (IC50). As to the method:
(§1) Caspase Inhibitor Screening Kit for BioVision was used in this experiment to test the inhibitory activity of the test compound on Caspase.
(§2) • 1) Kit: • Caspase-1 Inhibitor Screening Kit (BioVision #K151-100) • Caspase-3 Inhibitor Screening Kit (BioVision #K153-100) • Caspase-8 Inhibitor Screening Kit (BioVision #K158-100) • Wherein, each caspase enzymatic experiment uses the reagents in corresponding kit thereof. Each enzyme was dissolved in 550 μl of the corresponding 2× reaction buffer, sub-packed and stored at −80° C., respectively. • 2) Black 384-well plate (PerkinElmer #6007279) • 3) Instrument: Multi-function microplate reader Molecular Devices (Model: SpectraMax M2e) Experimental Method: • 1) The compound of formula I-A was diluted to a 200* test concentration with DMSO via the multiple dilution, then to a 2* test concentration with ddH2O, and added to a 384-well experimental plate at 12.5 μl per well. […] After the substrate was added, the 384-well experimental plate was incubated at 37° C. for 30 minutes. • 4) The fluorescence intensity (excitation light wavelength was 400 nm, emission light wavelength was 505 nm) was measured by using a multi-function microplate reader. Fluorescence intensity was used to calculate the inhibitory effect of the compounds on Caspase. […]

The next data set concerns the target T2, Caspase-3 (Homo sapiens, UniProt P42574).
T2 construct: purchased BioVision K153-100
T2 sequence (P42574 29-175 limits assumed): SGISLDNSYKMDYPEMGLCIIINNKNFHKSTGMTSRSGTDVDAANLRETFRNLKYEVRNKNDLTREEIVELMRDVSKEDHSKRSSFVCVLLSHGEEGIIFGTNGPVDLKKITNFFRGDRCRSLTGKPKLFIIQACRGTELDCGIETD
T2 sequence (P42574 176-277 limits assumed): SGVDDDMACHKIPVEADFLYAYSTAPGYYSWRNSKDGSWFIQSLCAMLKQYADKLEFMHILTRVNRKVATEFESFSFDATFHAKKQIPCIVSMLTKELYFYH
The experiment in a line: Caspase-3 Inhibitor Screening Kit (BioVision), fluorogenic substrate. The conditions noted are these: 30 min preincubation at 37° C., substrate 50 μM; read-out: Caspase-3 enzymatic activity (IC50). Type of data set: biochemical. As to the method: as §1, §2

The target of the next data set is T3, Caspase-8 (Homo sapiens, UniProt Q14790).
T3 construct: purchased BioVision K158-100
The experiment in a line: Caspase-8 Inhibitor Screening Kit (BioVision), fluorogenic substrate. The class given is biochemical. The note with it: 30 min preincubation at 37° C., substrate 50 μM; read-out: Caspase-8 enzymatic activity (IC50). As to the method: as §1, §2

Where [3] appears, read: aqueous buffer, pH = 4.5 Buffer, supernatant pH 4.67.
[4] abbreviates: aqueous buffer, pH = 5.5 Buffer, supernatant pH 5.55.
Where [5] appears, read: aqueous buffer, pH = 6.0 Buffer, supernatant pH 6.04.

In brackets after ≈: the same amount, converted by molar mass.

T3 sequence (Q14790 217-374 limits assumed): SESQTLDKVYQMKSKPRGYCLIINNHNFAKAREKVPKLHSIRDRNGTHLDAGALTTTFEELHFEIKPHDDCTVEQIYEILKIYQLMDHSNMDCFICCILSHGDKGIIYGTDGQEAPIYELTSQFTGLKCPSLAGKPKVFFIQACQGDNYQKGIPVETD
T3 sequence (Q14790 385-479 limits assumed): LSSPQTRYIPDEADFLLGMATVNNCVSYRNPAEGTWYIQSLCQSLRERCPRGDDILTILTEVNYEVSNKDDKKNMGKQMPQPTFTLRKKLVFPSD

For the compound `C[C@H](NC(=O)c1cc(-c2ccccc2Cl)on1)C(=O)N[C@@H](CC(=O)O)C(=O)COc1c(F)c(F)cc(F)c1F` [crystal IV, (S)-3-((S)-2-(5-(2-chlorophenyl)isoxazol-3-carboxamido)propionamido)-4-oxo-5-(2,3,5,6-tetrafluorophenoxy)pentanoic acid], the solubility (as a rule, how much of the substance goes into solution per volume) at 4 h in data set [1] (0.01 N HCl buffer, simulated gastric fluid, 0.01N of HCl Buffer, supernatant pH 2.01) was 5 µg/mL (≈ 8.74 µM); in data set [1] (0.1 N HCl buffer, simulated gastric fluid, 0.1N of HCl Buffer, supernatant pH 1.07) it was 5 µg/mL (≈ 8.74 µM); in data set [1] (aqueous buffer, pH = 3.8 Buffer, supernatant pH 3.97) it was 7 µg/mL (≈ 12.2 µM); in data set [1] (setting [3]), 16 µg/mL (≈ 28 µM); in data set [1] (setting [4]), 268 µg/mL (≈ 469 µM); in data set [1] (setting [5]) it was 372 µg/mL (≈ 651 µM). Also, the solubility at 4 h in data set [1] (aqueous buffer, pH = 6.8 Buffer, supernatant pH 6.71) worked out at 775 µg/mL (≈ 1360 µM); in data set [1] (aqueous buffer, pH = 7.4 Buffer, supernatant pH 7.28) it was 1700 µg/mL (≈ 2970 µM); in data set [1] (Water, supernatant pH 7.83) it was 339 µg/mL (≈ 593 µM). Also, the solubility at 24 h in data set [1] (0.01 N HCl buffer, simulated gastric fluid, 0.01N of HCl Buffer, supernatant pH 2.07) is 6 µg/mL (≈ 10.5 µM); in data set [1] (0.1 N HCl buffer, simulated gastric fluid, 0.1N of HCl Buffer, supernatant pH 1.11), 6 µg/mL (≈ 10.5 µM); in data set [1] (aqueous buffer, pH = 3.8 Buffer, supernatant pH 3.99) it was 8 µg/mL (≈ 14 µM); in data set [1] (setting [3]) it was 16 µg/mL (≈ 28 µM); in data set [1] (setting [4]) it was 254 µg/mL (≈ 444 µM); in data set [1] (setting [5]), 340 µg/mL (≈ 595 µM). Further, the solubility at 24 h was determined as 1620 µg/mL (≈ 2830 µM) in data set [1] (aqueous buffer, pH = 7.4 Buffer, supernatant pH 7.24); 702 µg/mL (≈ 1230 µM) in data set [1] (pH 6.7, aqueous buffer, pH = 6.8 Buffer, supernatant pH 6.70); 266 µg/mL (≈ 465 µM) in data set [1] (Water, supernatant pH 7.34). The Appearance entry in data set [2] (25° C./60% RH, 10 days) is “White solid powder”; in data set [2] (40° C./75% RH, 10 days), “White solid powder”; in data set [2] (60° C./75% RH, 10 days) it was “White solid powder”. Also, the “Total Impurities (%)” value amounted to 0.20% in data set [2] (25° C./60% RH, 10 days); 0.19% in data set [2] (40° C./75% RH, 10 days); 0.48% in data set [2] (60° C./75% RH, 10 days). In addition, the Property result in data set [2] (25° C./92.5% Relative Humidity (Exposure)), in data set [2] (60° C. (Exposure)) and in data set [2] (Light) was “White solid” in each case. Besides, the Crystal result in data set [2] (crystal form after 25° C./60% RH, 10 days) is “Crystal IV”; in data set [2] (crystal form after 25° C./92.5% Relative Humidity (Exposure)) it was “Crystal IV”; in data set [2] (crystal form after 40° C./75% RH, 10 days), “Crystal IV”; in data set [2] (crystal form after 60° C. (Exposure)), “Crystal IV”; in data set [2] (crystal form after 60° C./75% RH, 10 days), “Crystal IV”; in data set [2] (crystal form after Light), “Crystal IV”. In data set [2] (high temperature and high humidity conditions (summary of Table 10)), this compound yielded a total impurities produced of at most 0.5%. Besides, in data set [2] (summary of Table 10), the “stability under high temperature and high humidity conditions” value was “stable”. Further, the hygroscopicity entry in data set [2] (summary of Table 11) is “low hygroscopicity”. For the same compound, the “stability under high temperature and light conditions” value in data set [2] (summary of Table 11) is “good stability”.
Regarding `C[C@H](NC(=O)c1cc(-c2ccccc2Cl)on1)C(=O)N[C@@H](CC(=O)O)C(=O)COc1c(F)c(F)cc(F)c1F` [Compound of formula I-A, (S)-3-((S)-2-(5-(2-chlorophenyl)isoxazol-3-carboxamido)propionamido)-4-oxo-5-(2,3,5,6-tetrafluorophenoxy)pentanoic acid], the IC50 (as a rule, the midpoint of a concentration-inhibition curve) on Caspase-1 turned out to be 4.6 nM; on Caspase-3, 13 nM; at Caspase-8 it was 10.3 nM.
